Reference: US6677277B1, “Substituted sulphonyl amino(thio)carbonyl compounds and their use as herbicides” (Bayer Aktiengesellschaft, priority 1996, dated 2004)

Assays:
Format in all cases: in vivo
Alopecurus [1] = test: Pre-emergence test/greenhouse; conditions: after three weeks
Experimental: (§1) Pre-emergence Test Solvent: 5 parts by weight of acetone Emulsifier: 1 part by weight of alkylaryl polyglycol ether To produce a suitable preparation of active compound, 1 part by weight of active compound is mixed with the stated amount of solvent, the stated amount of emulsifier is added and the concentrate is diluted with water to the desired concentration. Seeds of the test plants are sown in normal soil. After about 24 hours, the soil is sprayed with the preparation of the active compound in such a way as to apply the particular amounts of active compound desired per unit area The concentration of the spray liquor is chosen so that the particular amounts of active compound desired are applied in 1000 l of water/ha. After three weeks, the degree of damage to the plants is rated in % damage in comparison to the development of the untreated control. The figures denote: [table]

Sorghum [2] = test: Pre-emergence test/greenhouse; conditions: after three weeks
Experimental: as §1

Maize = test: Pre-emergence test/greenhouse; conditions: after three weeks
Experimental: as §1

Chenopodium = test: Pre-emergence test/greenhouse; conditions: after three weeks
Experimental: as §1

Lolium [3] = test: Pre-emergence test/greenhouse; conditions: after three weeks
Experimental: as §1

Matricaria = test: Pre-emergence test/greenhouse; conditions: after three weeks
Experimental: as §1

Amaranthus = test: Pre-emergence test/greenhouse; conditions: after three weeks
Experimental: as §1

Solanum [4] = test: Pre-emergence test/greenhouse; conditions: after three weeks
Experimental: as §1

weeds [5] = test: Pre-emergence test; conditions: cf. Tables A-1 to A-5
Experimental: as §1

Ipomoea = test: Post-emergence test/greenhouse; conditions: for Ipomoea, % damage: rated after three weeks vs untreated control; for % damage, Ipomoea: after three weeks
Experimental: as §1, with “Post-emergence” for “Pre-emergence”, “Test plants which have a height” for “Seeds”, “5-15 cm” for “the test plants”, “are” for “are sown in normal soil. After about 24 hours, the soil is”, “area.” for “area”

Xanthium = test: Post-emergence test/greenhouse; conditions: post-emergence; for Xanthium, % damage: rated after three weeks vs untreated control
Experimental: as §1, with “Post-emergence” for “Pre-emergence”, “Test plants which have a height” for “Seeds”, “5-15 cm” for “the test plants”, “are” for “are sown in normal soil. After about 24 hours, the soil is”, “area.” for “area”

Wheat = test: Post-emergence test/greenhouse; conditions: rated after three weeks vs untreated control
Experimental: as §1, with “Post-emergence” for “Pre-emergence”, “Test plants which have a height” for “Seeds”, “5-15 cm” for “the test plants”, “are” for “are sown in normal soil. After about 24 hours, the soil is”, “area.” for “area”

Solanum [6] = test: Post-emergence test/greenhouse; conditions: post-emergence; for Solanum, % damage: rated after three weeks vs untreated control; for % damage, Solanum: after three weeks
Experimental: as §1, with “Post-emergence” for “Pre-emergence”, “Test plants which have a height” for “Seeds”, “5-15 cm” for “the test plants”, “are” for “are sown in normal soil. After about 24 hours, the soil is”, “area.” for “area”

Stellaria = test: Post-emergence test/greenhouse; conditions: for Stellaria, % damage: rated after three weeks vs untreated control; for % damage, Stellaria: after three weeks
Experimental: as §1, with “Post-emergence” for “Pre-emergence”, “Test plants which have a height” for “Seeds”, “5-15 cm” for “the test plants”, “are” for “are sown in normal soil. After about 24 hours, the soil is”, “area.” for “area”

weeds [7] = test: Post-emergence test; conditions: cf. Tables B-1 to B-4
Experimental: as §1, with “Post-emergence” for “Pre-emergence”, “Test plants which have a height” for “Seeds”, “5-15 cm” for “the test plants”, “are” for “are sown in normal soil. After about 24 hours, the soil is”, “area.” for “area”

Sorghum [8] = test: Post-emergence test/greenhouse; conditions: post-emergence; for Sorghum, % damage: rated after three weeks vs untreated control; for % damage, Sorghum: after three weeks
Experimental: as §1, with “Post-emergence” for “Pre-emergence”, “Test plants which have a height” for “Seeds”, “5-15 cm” for “the test plants”, “are” for “are sown in normal soil. After about 24 hours, the soil is”, “area.” for “area”

Alopecurus [9] = test: Post-emergence test/greenhouse; conditions: 60 g ai./ha, after three weeks
Experimental: as §1, with “Post-emergence” for “Pre-emergence”, “Test plants which have a height” for “Seeds”, “5-15 cm” for “the test plants”, “are” for “are sown in normal soil. After about 24 hours, the soil is”, “area.” for “area”

Lolium [10] = test: Post-emergence test/greenhouse; conditions: 60 g ai./ha, after three weeks
Experimental: as §1, with “Post-emergence” for “Pre-emergence”, “Test plants which have a height” for “Seeds”, “5-15 cm” for “the test plants”, “are” for “are sown in normal soil. After about 24 hours, the soil is”, “area.” for “area”

Row | Structure (SMILES) | % damage, Alopecurus (Alopecurus [1]; 125 g ai./ha) [%] | % damage, Sorghum (Sorghum [2]; 125 g ai./ha) [%] | % damage, Maize (Maize; 125 g ai./ha) [%] | % damage, Chenopodium (Chenopodium; 125 g ai./ha) [%] | % damage, Lolium (Lolium [3]; 125 g ai./ha) [%] | % damage, Matricaria (Matricaria; 125 g ai./ha) [%] | % damage, Amaranthus (Amaranthus; 125 g ai./ha) [%] | % damage, Solanum (Solanum [4]; 125 g ai./ha) [%] | activity against weeds (weeds [5]) | Ipomoea, % damage (Ipomoea; 60 g ai./ha) | Xanthium, % damage (Xanthium; 60 g ai./ha) [%] | Wheat, % damage (Wheat; 60 g ai./ha) [%] | Solanum, % damage (Solanum [6]; 60 g ai./ha) [%] | Stellaria, % damage (Stellaria; 60 g ai./ha) [%] | activity against weeds (weeds [7]) | Sorghum, % damage (Sorghum [8]; 60 g ai./ha) [%] | further results
1 | CCOc1nn(C(=O)NS(=O)(=O)c2c(Cl)cccc2SC)c(=O)n1C [Example 1, 5-ethoxy-4-methyl-2-(2-chloro-6-methylthio-phenylsulfonyl-aminocarbonyl)-2,4-dihydro-3H-1,2,4-triazol-3-one] | 95 | 90 | 0 | 60 | 70 | 70 | 90 | 100 | very strong activity | – | – | – | – | – | – | – | –
2 | CCSc1cccc(OC)c1S(=O)(=O)NC(=O)n1nc(CC)n(C)c1=O [Example 8] | 100 | – | 0 | 100 | 80 | – | 100 | 60 | very strong activity | – | – | – | – | – | – | – | –
3 | CCOc1nn(C(=O)NS(=O)(=O)c2c(SCC)cccc2C(F)(F)F)c(=O)n1C [Example 11] | 100 | 100 | 10 | 100 | 90 | 100 | 100 | 100 | very strong activity | 90% | 90 | 0 | 70 | 90 | very strong activity | – | –
4 | CCSc1cccc(C(F)(F)F)c1S(=O)(=O)NC(=O)n1nc(OC)n(C)c1=O [Example 13] | 90 | 100 | 0 | 100 | 90 | 100 | 100 | 100 | very strong activity | 90% | – | 0 | 95 | 95 | very strong activity | 80 | –
5 | CCSc1cccc(C(F)(F)F)c1S(=O)(=O)NC(=O)n1nc(SC)n(C)c1=O [Example 14] | 100 | 90 | 0 | 100 | – | 100 | 70 | 100 | very strong activity | – | – | – | – | – | – | – | –
6 | CCc1nn(C(=O)NS(=O)(=O)c2c(OC)cccc2SC)c(=O)n1C [Example 22] | 100 | 80 | 30 | – | 100 | 60 | 100 | 100 | very strong activity | – | – | – | – | – | very strong activity | – | % damage, Ipomoea (Ipomoea; 60 g ai./ha): 80%; % damage, Alopecurus (Alopecurus [9]): 90%; % damage, Sorghum (Sorghum [8]; 60 g ai./ha): 95%; % damage, Lolium (Lolium [10]): 90%; % damage, Solanum (Solanum [6]; 60 g ai./ha): 80%; % damage, Stellaria (Stellaria; 60 g ai./ha): 90%
7 | COc1nn(C(=O)NS(=O)(=O)c2c(OC(F)(F)F)cccc2SC)c(=O)n1C [Example 32] | – | – | – | – | – | – | – | – | very strong activity | – | – | – | – | – | – | – | % damage, Alopecurus (Alopecurus [1]; 30 g ai./ha): 90%; % damage, Sorghum (Sorghum [2]; 30 g ai./ha): 90%; % damage, Maize (Maize; 30 g ai./ha): 5%; % damage, Chenopodium (Chenopodium; 30 g ai./ha): 100%; % damage, Lolium (Lolium [3]; 30 g ai./ha): 100%; % damage, Matricaria (Matricaria; 30 g ai./ha): 90%; % damage, Amaranthus (Amaranthus; 30 g ai./ha): 100%; % damage, Solanum (Solanum [4]; 30 g ai./ha): 95%
8 | CSc1cccc(OC(F)(F)F)c1S(=O)(=O)NC(=O)n1nc(SC)n(C)c1=O [Example 33] | 100 | 100 | 10 | 100 | 100 | 100 | 100 | 100 | very strong activity | – | – | – | – | – | – | – | –
9 | CCSc1cccc(OC(F)(F)F)c1S(=O)(=O)NC(=O)n1nc(CC)n(C)c1=O [Example 39] | – | – | – | – | – | – | – | – | – | 80% | 95 | 20 | 95 | 90 | very strong activity | 80 | –
10 | CCOc1nn(C(=O)NS(=O)(=O)c2c(SCC)cccc2SCC)c(=O)n1C [Example 43] | – | – | – | – | – | – | – | – | – | 95% | 100 | 20 | 95 | 90 | very strong activity | 70 | –
11 | CCSc1cccc(SCC)c1S(=O)(=O)NC(=O)n1nc(CC)n(C)c1=O [Example 44] | – | – | – | – | – | – | – | – | – | 95% | 100 | 10 | 95 | 80 | very strong activity | 70 | –
12 | CCSc1cccc(SCC)c1S(=O)(=O)NC(=O)n1nc(OC)n(C)c1=O [Example 46] | – | – | – | – | – | – | – | – | – | 9S | 100 | – | 95 | 95 | very strong activity | 70 | –
13 | CCOc1nn(C(=O)NS(=O)(=O)c2c(C)cccc2SC)c(=O)n1C [Example 48] | – | – | – | – | – | – | – | – | – | 90% | 95 | 5 | 90 | 60 | very strong activity | 100 | –
14 | CCOc1nn(C(=O)NS(=O)(=O)c2c(SC)cccc2SC)c(=O)n1C [Example 52] | – | – | – | – | – | – | – | – | – | – | – | – | – | – | very strong activity | – | % damage, Ipomoea (Ipomoea; 60 g ai./ha): 90%; % damage, Alopecurus (Alopecurus [9]): 90%; % damage, Sorghum (Sorghum [8]; 60 g ai./ha): 100%; % damage, Lolium (Lolium [10]): 60%; % damage, Xanthium (Xanthium; 60 g ai./ha, after three weeks): 95%; % damage, Solanum (Solanum [6]; 60 g ai./ha): 95%; % damage, Stellaria (Stellaria; 60 g ai./ha): 95%
15 | CCSc1cccc(C)c1S(=O)(=O)NC(=O)n1nc(OC)n(C)c1=O [Example 53] | – | – | – | – | – | – | – | – | – | – | – | – | – | – | very strong activity | – | Ipomoea, % damage (Ipomoea; 125 g ai./ha): 95%; Sorghum, % damage (Sorghum [8]; 125 g ai./ha): 95%; Xanthium, % damage (Xanthium; 125 g ai./ha): 100%; Wheat, % damage (Wheat; 125 g ai./ha): 20%; Solanum, % damage (Solanum [6]; 125 g ai./ha): 59%; Stellaria, % damage (Stellaria; 125 g ai./ha): 90%
16 | COc1cccc(SCCF)c1S(=O)(=O)NC(=O)n1nc(OC)n(C)c1=O [Example 57] | 100 | 100 | – | 100 | 100 | – | 100 | – | very strong activity | – | – | – | – | – | – | – | –
17 | CSc1cccc(C(F)(F)F)c1S(=O)(=O)NC(=O)n1nc(SC)n(C)c1=O [Example 62] | – | – | – | – | – | – | – | – | very strong activity | – | – | – | – | – | – | – | % damage, Alopecurus (Alopecurus [1]; 60 g ai./ha): 100%; % damage, Sorghum (Sorghum [2]; 60 g ai./ha): 90%; % damage, Maize (Maize; 60 g ai./ha): 10%; % damage, Chenopodium (Chenopodium; 60 g ai./ha): 100%; % damage, Lolium (Lolium [3]; 60 g ai./ha): 100%; % damage, Amaranthus (Amaranthus; 60 g ai./ha): 100%; % damage, Solanum (Solanum [4]; 60 g ai./ha): 100%
18 | CCc1nn(C(=O)NS(=O)(=O)c2c(SC)cccc2C(F)(F)F)c(=O)n1C [Example 63] | – | – | – | – | – | – | – | – | very strong activity | – | – | – | – | – | – | – | % damage, Alopecurus (Alopecurus [1]; 60 g ai./ha): 100%; % damage, Sorghum (Sorghum [2]; 60 g ai./ha): 100%; % damage, Maize (Maize; 60 g ai./ha): 0%; % damage, Chenopodium (Chenopodium; 60 g ai./ha): 100%; % damage, Lolium (Lolium [3]; 60 g ai./ha): 70%; % damage, Amaranthus (Amaranthus; 60 g ai./ha): 100%; % damage, Solanum (Solanum [4]; 60 g ai./ha): 100%
